Test results taken from patent US9951094B2, “Phosphole compound and fluorescent dye containing the same” (NATIONAL UNIVERSITY CORPORATION NAGOYA UNIVERSITY, priority 2014, dated 2018).
Marks after values point to notes of the source that are not given here.

How the values were obtained:
Assay type in all cases: physicochemical
[1] = Absolute fluorescence quantum yield in solvents
Protocol: (§1) The optical properties of compounds 1 to 3, 6b to 6d, 7a, and 7b were evaluated. Ultraviolet-visible (UV-Vis) absorption and fluorescence spectra were measured with an UV-Vis-NIR spectrophotometer UV-3150 (Shimadzu) and a fluorescence spectrophotometer F-4500 (Hitachi), respectively. Absolute fluorescence quantum yield was determined with an absolute PL quantum yield measurement instruments C9920-02 or C11347-01 (Hamamatsu Photonics). Sample solutions of all the samples were prepared using spectral grade solvents purchased from Nacalai Tesque, and were each measured with a 1 cm square quartz cuvette. The concentrations of each sample for the measurement of UV-Vis absorption spectra were set for ca. 10^−5 M. The concentrations of each sample for the measurement of fluorescence spectra were adjusted in a range where concentration quenching would not occur. For the measurement of absolute fluorescence quantum yield, each sample solution was deaerated by purging with an argon gas stream for several minutes prior to the measurements. The orientation polarizabilities Δf of hexane, ethyl acetate, and methanol, which are not shown in the Tables, were −0.000518, 0.201, and 0.309, respectively.

[2] = Fluorescence spectra in solvents
Protocol: as §1

[3] = UV-Vis absorption spectra in solvents
Protocol: as §1

[4] = Photobleaching resistance, 403 nm laser irradiation of acetonitrile solutions; details: acetonitrile solution, 403 nm laser light, 120 minutes; FIG. 2
Protocol: Solutions of compounds 1, 2 (6a), 6b, 7a, 7b, and a known fluorescent dye Alexa-430 each in acetonitrile were prepared so that their absorbances are in the range from 0.39 to 0.44. The concentration of each compound in the solution was 2.35×10^−5 M for compound 1, 2.17×10^−5 M for compound 2 (6a), 1.25×10^−5 M for compound 6b, 3.30×10^−5 M for compound 7a, and 2.04×10^−5 M for compound 7b. […] Immediately after preparation of each acetonitrile solution, the molar absorption coefficient of the acetonitrile solution was measured. Then, the molar absorption coefficient of the acetonitrile solution was measured after each of irradiations with 403 nm laser light for 20 minutes, 60 minutes, and 120 minutes, and the relative absorbance was determined relative to the molar absorption coefficient before laser light irradiation (immediately after preparation of the solution).

[5] = cyclohexane, apparatus C11347-01, self-absorption correction
[6] = cyclohexane, apparatus C11347-01
[7] = ethyl acetate, apparatus C11347-01

Fluorescence Quantum Yield φF [1, 5] | Emission Maximum Wavelength λ em ([2]; CH2Cl2) | Emission Maximum Wavelength λ em ([2]; DMF) | Emission Maximum Wavelength λ em ([2]; benzene) | Absorption Maximum Wavelength λ max ([3]; CH2Cl2) | Molar Absorption Coefficient ϵ ([3]; CH2Cl2) | Absorption Maximum Wavelength λ max ([3]; DMF) | Molar Absorption Coefficient ϵ ([3]; DMF) | Structure (SMILES) | Fluorescence Quantum Yield φF ([1]; CH3CN, apparatus C11347-01) | Emission Maximum Wavelength λ em ([2]; CH3CN) | Emission Maximum Wavelength λ em ([2]; EtOH) | Emission Maximum Wavelength λ em ([2]; cyclohexane) | Absorption Maximum Wavelength λ max ([3]; CH3CN) | Absorption Maximum Wavelength λ max ([3]; EtOH) | Molar Absorption Coefficient ϵ ([3]; EtOH) | Absorption Maximum Wavelength λ max ([3]; cyclohexane) | Molar Absorption Coefficient ϵ ([3]; cyclohexane) | Fluorescence Quantum Yield φF ([1]; EtOH, apparatus C11347-01) | Fluorescence Quantum Yield φF [1, 6] | Molar Absorption Coefficient ϵ ([3]; CH3CN) | other results
0.92^a,c | 561 nm | 598 nm | 531 nm | 416 nm | 1.76 10^4M^−1 cm^−1 | 409 nm | 1.77 10^4M^−1 cm^−1 | O=P1(c2ccccc2)C(c2ccc(N(c3ccccc3)c3ccccc3)cc2)=C(c2ccccc2)c2ccccc21 (stereo not shown) [Compound 1, 2-[4-(N,N-diphenylamino)phenyl]-1,3-diphenylbenzo[b]phosphole-P-oxide] | 0.67^a | 597 nm | 595 nm | 508 nm | 404 nm | 417 nm | 1.68 10^4M^−1 cm^−1 | 412 nm | 1.82 10^4M^−1 cm^−1 | – | – | – | Fluorescence Quantum Yield φF ([1]; CH2Cl2, apparatus C9920-02): 0.84^b; Fluorescence Quantum Yield φF ([1]; CHCl3, apparatus C9920-02): 0.89^b; Fluorescence Quantum Yield φF ([1]; DMF, apparatus C9920-02): 0.71^b; Fluorescence Quantum Yield φF ([1]; benzene, apparatus C9920-02): 0.89^b; Fluorescence in various solvents from low-polarity to high-polarity solvents [2]: strong fluorescence; Emission Maximum Wavelength λ em ([2]; CHCl3): 551 nm; Shift of fluorescence wavelength as the polarity of the solvent increases ([2]; Table 1 solvents): shifted to the longer wavelength; Absorption Maximum Wavelength λ max ([3]; CHCl3): 418 nm; Molar Absorption Coefficient ϵ ([3]; CHCl3): 1.78 10^4M^−1 cm^−1; Absorption Maximum Wavelength λ max ([3]; benzene): 416 nm; Molar Absorption Coefficient ϵ ([3]; benzene): 1.88 10^4M^−1 cm^−1
– | – | – | – | – | – | – | – | O=P1(c2ccccc2)C(c2cc3c4c(c2)CCCN4CCC3)=Cc2cc3ccccc3cc21 (stereo not shown) [Compound 6c] | 0.71 | 580 nm | 583 nm | 466 nm | 425 nm | 429 nm | 2.33 10^4M^−1 cm^−1 | 420 nm | 2.38 10^4M^−1 cm^−1 | 0.67 | 0.90 | 2.35 10^4M^−1 cm^−1 | Fluorescence Quantum Yield φF [1, 7]: 0.90; Emission Maximum Wavelength λ em ([2]; ethyl acetate): 538 nm; Absorption Maximum Wavelength λ max ([3]; ethyl acetate): 420 nm; Molar Absorption Coefficient ϵ ([3]; ethyl acetate): 2.38 10^4M^−1 cm^−1
0.93^b | 543 nm | 564 nm | 497 nm | 413 nm | 1.75 10^4M^−1 cm^−1 | 409 nm | 1.71 10^4M^−1 cm^−1 | O=P1(c2ccccc2)C(c2ccc(N(c3ccccc3)c3ccccc3)cc2)=Cc2ccccc21 (stereo not shown) [Compound 2, 2-[4-(N,N-diphenylamino)phenyl]-1-phenylbenzo[b]phosphole-P-oxide] | 0.61 | 571 nm | 565 nm | 456 nm | 406 nm | 416 nm | 1.78 10^4M^−1 cm^−1 | 410 nm | 1.95 10^4M^−1 cm^−1 | 0.57 | – | 1.77 10^4M^−1 cm^−1 | Fluorescence Quantum Yield φF ([1]; CH2Cl2, apparatus C11347-01): 0.91; Fluorescence Quantum Yield φF ([1]; DMF, apparatus C11347-01): 0.67; Fluorescence Quantum Yield φF ([1]; benzene, apparatus C11347-01): 0.97; Absorption Maximum Wavelength λ max ([3]; benzene): 414 nm; Molar Absorption Coefficient ϵ ([3]; benzene): 1.91 10^4M^−1 cm^−1
– | – | – | – | – | – | – | – | O=P1(c2ccccc2)C2=C(c3ccccc31)C(c1ccccc1)(c1ccccc1)c1cc(N(c3ccccc3)c3ccccc3)ccc12 (stereo not shown) [Compound 7a] | 0.79 | 590 nm | 589 nm | 482 nm | 428 nm | 439 nm | 1.60 10^4M^−1 cm^−1 | 424 nm | 1.60 10^4M^−1 cm^−1 | 0.70 | 0.88 | 1.62 10^4M^−1 cm^−1 | Fluorescence Quantum Yield φF [1, 7]: 0.90; Emission Maximum Wavelength λ em ([2]; ethyl acetate): 540 nm; Resistance to photobleaching (relative absorbance) [4]: outstanding resistance to photobleaching; Absorption Maximum Wavelength λ max ([3]; ethyl acetate): 424 nm; Molar Absorption Coefficient ϵ ([3]; ethyl acetate): 1.61 10^4M^−1 cm^−1
– | – | – | – | – | – | – | – | O=P1(c2ccccc2)C(c2ccc(N(c3ccccc3)c3ccccc3)cc2)=Cc2ccc3ccccc3c21 (stereo not shown) [Compound 6d] | 0.58 | 620 nm | 611 nm | 495 nm | 439 nm | 448 nm | 1.94 10^4M^−1 cm^−1 | 440 nm | 1.81 10^4M^−1 cm^−1 | 0.51 | 0.92 | 2.07 10^4M^−1 cm^−1 | Fluorescence Quantum Yield φF [1, 7]: 0.90; Emission Maximum Wavelength λ em ([2]; ethyl acetate): 564 nm; Absorption Maximum Wavelength λ max ([3]; ethyl acetate): 436 nm; Molar Absorption Coefficient ϵ ([3]; ethyl acetate): 2.02 10^4M^−1 cm^−1
0.91^b | 532 nm | 559 nm | 507 nm | 412 nm | 1.71 10^4M^−1 cm^−1 | 412 nm | 1.73 10^4M^−1 cm^−1 | CN(C)c1ccc(C2=Cc3ccccc3P2(=O)c2ccccc2)cc1 (stereo not shown) [Compound 3, 2-[4-(N,N-dimethylamino)phenyl]-1-phenylbenzo[b]phosphole-P-oxide] | 0.89 | 558 nm | 565 nm | 456 nm | 408 nm | 415 nm | 1.69 10^4M^−1 cm^−1 | 401 nm | – | 0.82 | – | 1.73 10^4M^−1 cm^−1 | Fluorescence Quantum Yield φF ([1]; CH2Cl2, apparatus C11347-01): 0.93; Fluorescence Quantum Yield φF ([1]; DMF, apparatus C11347-01): 0.88; Absolute fluorescence quantum yield compared with compound 2 ([1]; Tables 2 and 3): higher absolute fluorescence quantum yield than compound 2; Fluorescence Quantum Yield φF ([1]; benzene, apparatus C11347-01): 0.95; Absorption Maximum Wavelength λ max ([3]; benzene): 410 nm; Molar Absorption Coefficient ϵ ([3]; benzene): 1.89 10^4M^−1 cm^−1

Structure (SMILES) | Fluorescence Quantum Yield φF [1, 5] | Emission Maximum Wavelength λ em ([2]; CH2Cl2) | Emission Maximum Wavelength λ em ([2]; DMF) | Emission Maximum Wavelength λ em ([2]; benzene) | Absorption Maximum Wavelength λ max ([3]; CH2Cl2) | Molar Absorption Coefficient ϵ ([3]; CH2Cl2) | Absorption Maximum Wavelength λ max ([3]; DMF) | Molar Absorption Coefficient ϵ ([3]; DMF) | Fluorescence Quantum Yield φF ([1]; CH3CN, apparatus C11347-01) | Emission Maximum Wavelength λ em ([2]; CH3CN) | Emission Maximum Wavelength λ em ([2]; EtOH) | Emission Maximum Wavelength λ em ([2]; cyclohexane) | Absorption Maximum Wavelength λ max ([3]; CH3CN) | Absorption Maximum Wavelength λ max ([3]; EtOH) | Molar Absorption Coefficient ϵ ([3]; EtOH) | Absorption Maximum Wavelength λ max ([3]; cyclohexane) | Molar Absorption Coefficient ϵ ([3]; cyclohexane) | Fluorescence Quantum Yield φF ([1]; EtOH, apparatus C11347-01) | Fluorescence Quantum Yield φF [1, 6] | Molar Absorption Coefficient ϵ ([3]; CH3CN) | other results
O=P1(c2ccccc2)C(c2ccc(N(c3ccccc3)c3ccccc3)cc2)=Cc2cc3ccccc3cc21 (stereo not shown) [Compound 6b] | – | 533 nm | – | – | 414 nm | 3.66 10^4M^−1 cm^−1 | – | – | 0.80 | 563 nm | 550 nm | 450 nm | 405 nm | 413 nm | 2.67 10^4M^−1 cm^−1 | 409 nm | 4.17 10^4M^−1 cm^−1 | 0.79 | 0.90 | 3.25 10^4M^−1 cm^−1 | Fluorescence Quantum Yield φF ([1]; CH2Cl2, apparatus C11347-01): 0.95; Resistance to photobleaching (relative absorbance) [4]: outstanding resistance to photobleaching
